Experimental data from ChEMBL document CHEMBL3885881, “DrugMatrix”.

Species: Rattus norvegicus
Assay: DrugMatrix - Regimen: Daily Repeat
Assay type: toxicity, organism-based, Sprague-Dawley
Parameters: regimen Daily Repeat, gender Male, age 6-8 weeks
Details: in vivo, po, 10 mg/kg, route oral GAVAGE, dose level Low, […]; for ABSOLUTE BASOPHIL / ABSOLUTE EOSINOPHIL / ABSOLUTE LYMPHOCYTE / ABSOLUTE MONOCYTE / ABSOLUTE SEGMENTED NEUTROPHIL / BASOPHIL / EOSINOPHIL / HEMATOCRIT / HEMOGLOBIN / LEUKOCYTE COUNT / LYMPHOCYTE / MEAN CORPUSCULAR HEMOGLOBIN / MEAN CORPUSCULAR HEMOGLOBIN CONCENTRATION / MEAN CORPUSCULAR VOLUME / MONOCYTE / NEUTROPHIL / NUCLEATED RED BLOOD CELLS / PLATELET COUNT: tissue Blood; for ALANINE AMINOTRANSFERASE / ALBUMIN / ALKALINE PHOSPHATASE / ASPARTATE AMINOTRANSFERASE / BLOOD UREA NITROGEN / CARBON DIOXIDE / CHLORIDE / CHOLESTEROL / CREATINE PHOSPHOKINASE / CREATININE / GLUCOSE / LIPASE / PHOSPHORUS / POTASSIUM / SODIUM / TOTAL BILIRUBIN / TOTAL PROTEIN / URIC ACID: tissue Plasma

CN1CCN2c3ccccc3Cc3ccccc3C2C1 (configuration not stated) [MIANSERIN]
ABSOLUTE BASOPHIL (72 h, time 3 day): 0 CELLS/uL
ABSOLUTE EOSINOPHIL (72 h, time 3 day): 54.33 CELLS/uL
ABSOLUTE LYMPHOCYTE (72 h, time 3 day): 11772.33 CELLS/uL
ABSOLUTE MONOCYTE (72 h, time 3 day): 287.33 CELLS/uL
ABSOLUTE SEGMENTED NEUTROPHIL (72 h, time 3 day): 1319.33 CELLS/uL
BASOPHIL (72 h, time 3 day): 0%
EOSINOPHIL (72 h, time 3 day): 0.33%
HEMATOCRIT (72 h, time 3 day): 34.47%
HEMOGLOBIN (72 h, time 3 day): 13.1 G/DL
LEUKOCYTE COUNT (72 h, time 3 day): 13.43 x10E3/uL
LYMPHOCYTE (72 h, time 3 day): 88.33%
MEAN CORPUSCULAR HEMOGLOBIN (72 h, time 3 day): 23.57 pg
MEAN CORPUSCULAR HEMOGLOBIN CONCENTRATION (72 h, time 3 day): 38 G/DL
MEAN CORPUSCULAR VOLUME (72 h, time 3 day): 61.97 fL
MONOCYTE (72 h, time 3 day): 2%
NEUTROPHIL (72 h, time 3 day): 9.33%
NUCLEATED RED BLOOD CELLS (72 h, time 3 day): 0 /100WBC
PLATELET COUNT (72 h, time 3 day): 1172 x10E3/uL
ALANINE AMINOTRANSFERASE (72 h, time 3 day): 74.67 u/L
ALBUMIN (72 h, time 3 day): 4.4 G/DL
ALKALINE PHOSPHATASE (72 h, time 3 day): 433.33 u/L
ASPARTATE AMINOTRANSFERASE (72 h, time 3 day): 111 u/L
BLOOD UREA NITROGEN (72 h, time 3 day): 16.33 mg/dL
CARBON DIOXIDE (72 h, time 3 day): 20.67 mmol/L
CHLORIDE (72 h, time 3 day): 107 MEQ/L
CHOLESTEROL (72 h, time 3 day): 81 mg/dL
CREATINE PHOSPHOKINASE (72 h, time 3 day): 603 u/L
CREATININE (72 h, time 3 day): 0.28 mg/dL
GLUCOSE (72 h, time 3 day): 162.67 mg/dL
LIPASE (72 h, time 3 day): 12 u/L
PHOSPHORUS (72 h, time 3 day): 12.3 mg/dL
POTASSIUM (72 h, time 3 day): 6.52 MEQ/L
SODIUM (72 h, time 3 day): 150.33 MEQ/L
TOTAL BILIRUBIN (72 h, time 3 day): 0.27 mg/dL
TOTAL PROTEIN (72 h, time 3 day): 6.23 G/DL
URIC ACID (72 h, time 3 day): 1.93 mg/dL
ABSOLUTE BASOPHIL (120 h, time 5 day): 0 CELLS/uL
ABSOLUTE EOSINOPHIL (120 h, time 5 day): 0 CELLS/uL
ABSOLUTE LYMPHOCYTE (120 h, time 5 day): 13210.67 CELLS/uL
ABSOLUTE MONOCYTE (120 h, time 5 day): 71.33 CELLS/uL
ABSOLUTE SEGMENTED NEUTROPHIL (120 h, time 5 day): 1118 CELLS/uL
BASOPHIL (120 h, time 5 day): 0%
EOSINOPHIL (120 h, time 5 day): 0%
HEMATOCRIT (120 h, time 5 day): 37.27%
HEMOGLOBIN (120 h, time 5 day): 13.67 G/DL
LEUKOCYTE COUNT (120 h, time 5 day): 14.4 x10E3/uL
LYMPHOCYTE (120 h, time 5 day): 92%
MEAN CORPUSCULAR HEMOGLOBIN (120 h, time 5 day): 23.9 pg
MEAN CORPUSCULAR HEMOGLOBIN CONCENTRATION (120 h, time 5 day): 36.73 G/DL
MEAN CORPUSCULAR VOLUME (120 h, time 5 day): 65.03 fL
MONOCYTE (120 h, time 5 day): 0.33%
NEUTROPHIL (120 h, time 5 day): 7.67%
NUCLEATED RED BLOOD CELLS (120 h, time 5 day): 0 /100WBC
PLATELET COUNT (120 h, time 5 day): 1241.33 x10E3/uL
ALANINE AMINOTRANSFERASE (120 h, time 5 day): 77.67 u/L
ALBUMIN (120 h, time 5 day): 4.3 G/DL
ALKALINE PHOSPHATASE (120 h, time 5 day): 439.33 u/L
ASPARTATE AMINOTRANSFERASE (120 h, time 5 day): 87.33 u/L
BLOOD UREA NITROGEN (120 h, time 5 day): 16.67 mg/dL
CARBON DIOXIDE (120 h, time 5 day): 24.67 mmol/L
CHLORIDE (120 h, time 5 day): 105.33 MEQ/L
CHOLESTEROL (120 h, time 5 day): 62 mg/dL
CREATINE PHOSPHOKINASE (120 h, time 5 day): 238.33 u/L
CREATININE (120 h, time 5 day): 0.16 mg/dL
GLUCOSE (120 h, time 5 day): 176.33 mg/dL
LIPASE (120 h, time 5 day): 11 u/L
PHOSPHORUS (120 h, time 5 day): 13.77 mg/dL
POTASSIUM (120 h, time 5 day): 7.05 MEQ/L
SODIUM (120 h, time 5 day): 148.43 MEQ/L
TOTAL BILIRUBIN (120 h, time 5 day): 0.23 mg/dL
TOTAL PROTEIN (120 h, time 5 day): 6.13 G/DL
URIC ACID (120 h, time 5 day): 2.37 mg/dL
